From patent US11661259B2, “Apparatus, arrangement and method for providing skin care ingredients” (MEMORIAL SLOAN-KETTERING CANCER CENTER, priority 2013, dated 2023)

Experiments:
[1] = Time required to completely dissolve Vitamin C powder in water; type: physicochemical
From the text: 1. Determine the amount of time required to completely dissolve Vitamin C powder with 12 to 15 cc of water. In general, it requires 45 to 120 seconds to completely dissolve 1% to 15% Vitamin C powder in water.

[2] = Decay of vitamin stored in liquid solution (loss of initial activity); conditions: dissolved in a liquid solution, stored in a closed and dark container, after 60 days

| Molecule | Time to completely dissolve ([1]; 1% to 15% Vitamin C powder in water) [s] | Time to completely dissolve ([1]; 1 wt % Vitamin C, 151 mg in 15 g water) [s] | Time to completely dissolve ([1]; 5 wt % Vitamin C, 526 mg in 12 g water) [s] | Time to completely dissolve ([1]; 10 wt % Vitamin C, 1107 mg in 12 g water) [s] | Time to completely dissolve ([1]; 15 wt % Vitamin C, 1765 mg in 12 g water) [s] | Time to completely dissolve ([1]; 20 wt % Vitamin C, 2496 mg in 12 g water) [s] | loss of initial activity [2] [%] |
| --- | --- | --- | --- | --- | --- | --- | --- |
| O=C1O[C@H]([C@@H](O)CO)C(O)=C1O [Vitamin C, L-ascorbic acid] | 45 to 120 | 60 | 45 | 75 | 120 | 210 | ~72 |
| tocopherol [Vitamin E] | – | – | – | – | – | – | ~35 |
